Here are results for 1 compound from patent US11590117B2, “Treatment of a hematologic malignancy with 2-(4-chlorophenyl)-n-((2-(2,6-dioxopiperidin-3-yl)-1-oxoisoindolin-5-yl)methyl)-2,2-difluoroacetamide” (priority 2016, dated 2023).

Holding throughout (assay type): cell-based, human
For one assay, the system named is HNT-34 cells. In words: Compound 1 washout assay (glutarimide washout, viability at 72 hours). As to conditions: viability after 72 hours. How it is done: Compound 1 Washout Assay: For washout experiments, AML cell lines were plated in U-bottom 96-well plates at a density of 60,000 cells per well. All cells were treated at time zero (t=0) with Compound 1, then, at each time point, cells were resuspended in washout media containing glutarimide at 1000-fold excess over the compound working concentration (eg, 100 μM glutarimide for washout of 100 nM compound treatment). At the end of the incubation period, the plates were centrifuged for 3 minutes at 200 g, supernatant was removed, and cells were resuspended in 100 μL/well 1× Annexin V binding buffer containing Annexin V (2.5 μL/well) and 7-AAD (5 μL/well). Flow cytometry was performed using a BD FACSarray instrument and results were quantified using FlowJo software. At the same time, CTG was added to the 96-(black) well plates and processed as described above in the cell proliferation assay.
In order to determine at what time point Compound 1 causes AML cell lines to commit to apoptosis, washout experiments were performed at different time points, and the cell viability was assessed after 72 hours (see schematic in FIG. 30 A). Compound 1 (100 nM) irreversibly committed the cells to apoptosis within 8 to 16 hours of treatment (FIG. 30 B). Washing out 100 nM Compound 1 between 1 and 4 hours reduced the potency (right-shift in the EC50 curve) by ˜10-fold.

The test system of assay [1] is leukemic cells of AML bone marrow samples. As to the kind of experiment: Ex vivo flow cytometry (ExviTech) assay in AML donor bone marrow samples. As to conditions: for Emax: 100% minus YMin; for depletion of leukemic cells, on average: sensitive patient samples. The procedure: (§1) Patient Samples: The study included bone marrow (BM) samples from adult patients over 18 years of age who were diagnosed with AML. Samples were analyzed in two different batches with the first batch containing 10 patients (donors assigned identification codes containing CG1) and the second comprising the remaining 20 donors (assigned identification codes containing CG3). Corresponding clinical data was not available for the second batch of 20 patient samples at the time of writing.
(§2) Experimental Study Design: To evaluate and characterize the ex vivo pharmacology of Compound 1 in malignant cells and normal lymphocytes of bone marrow samples from thirty donors with acute myeloid leukemia using a flow cytometry-based platform (ExviTech) (Bennett, et al Clin Lymphoma Myeloma Leuk 2014 August; 14(4):305-318).
(§3) On Day 1, the donor sample was received. A small part was separated for validation, and the majority was diluted with culture medium (Roswell Park Memorial Institute (RPMI) 1640) and plated into 96-well plates previously prepared with a range of Compound 1 concentrations. The number of live leukemic cells seeded in each well was fixed between 8000 and 32,000, depending on the percentage of leukemic cells for each sample. The plates were incubated for 24, 48, or 96 hours. Antibodies anti-D34, anti-CD117, anti-HLA-DR, anti-CD45, anti-CD14, anti-CD64, anti-CD13, anti-CD11b) or Annexin V were added to identify leukemic cells using a gating strategy based on forward scatter (FSC) or side scatter (SSC) and expression or lack of expression of different surface markers. The monoclonal antibody selection was performed to optimize the identification of leukemic cells in each sample. The aim of this analysis was not the phenotypic characterization but only the identification of these cells. Accordingly, the markers that Euroflow (van Dongen et al, Leukemia 2012 September; 26(9):1908-1975) has designated as the “backbone markers” for AML (CD34, CD45, CD117) and human leukocyte antigen-DR (HLA-DR) were included in the combination. They allowed the identification of the leukemic cells in almost 90% of AML patients. Additional panels, CD34/CD14/CD64/CD45 and CD34/CD11b/CD13/CD45, were also used to complete the identification of the myeloid leukemic population. This allowed for the selection of the two best antibodies for unequivocal identification of the pathological cell population in each particular sample.
(§4) Live leukemic cells were identified by their light scattering properties classified as high, intermediate, or low (eg, FSC^int/hi/SSC^int) in the absence of Annexin V fluorescein isothiocyanate (FITC) staining. Forward scatter/side scatter selection was performed to exclude debris. The average percentage of cell viability on receipt of the sample was greater than 50% (samples were only processed if the viability was greater than 50%). In some AML donor samples, sufficient normal, non-tumoral lymphocyte cells could be counted, and the effect of Compound 1 was measured in this cell population. Non-tumoral lymphocytes were identified by bright expression of CD45, FSC^low/SSC^low and absence of myeloid markers (CD117, CD11b, and CD13).
(§5) Detailed descriptions of methods used have been published previously (Bennett, et al Clin Lymphoma Myeloma Leuk 2014 August; 14(4):305-318). Briefly, BM samples were extracted under sterile conditions in hospitals of origin and were received within 24 hours of extraction. Initial analysis evaluated the number of pathological cells and their viability. Different volumes of sample (1 μL, 3 μL, 5 μL, and 7 μL) were transferred in duplicate into a 96-well plate. To lyse red blood cells, 180 μL of ammonium chloride lysis solution (2 g KHCO3, 16.58 g NH4Cl, 0.074 g disodium ethylenediaminetetraacetic acid ⋅2H2O, and H2O adjusted to […]) was added to each well. Following a 10-minute incubation period at 4° C., each plate was centrifuged for 5 minutes at 1200 rpm, and the supernatant removed. […]
In general terms: A flow cytometer gives signals particle by particle.

In assay [2] the test system is normal lymphocytes of AML bone marrow samples. Described as above. The procedure: as §1, §2, §3, §4, §5

Structures are written as SMILES. Values joined by “and” are separate entries in the source; they are usually repeats but may differ in a detail not shown here. Identical values can stand only once. Like-named read-outs stand apart in the source and are kept apart here.

Broadly, the Emax is the maximal effect, on the per cent scale that the assay sets. One may read the EC50 as the concentration at which the effect is half-maximal. For `O=C1CCC(N2Cc3cc(CNC(=O)C(F)(F)c4ccc(Cl)cc4)ccc3C2=O)C(=O)N1` (centres unmarked) [Compound 1, 2-(4-chlorophenyl)-N-((2-(2,6-dioxopiperidin-3-yl)-1-oxoisoindolin-5-yl)methyl)-2,2-difluoroacetamide], the “reduction of potency on washout” value in the assay with HNT-34 cells (washout at 8 to 16 hours) was approximately 4 fold. In the assay with HNT-34 cells (washout between 1 and 4 hours), the “reduction of potency (right-shift in the EC50 curve) on washout” value is approximately 10 fold. Moreover, the “patient samples sensitive to Compound 1” value in assay [1] (30 fresh AML bone marrow samples) was 26 out of 30. The Emax in assay [1] (Homo sapiens, 96 h, Leukemic (LIVE) cells, 96 hours incubation, per AML donor sample, read-out: Emax) was 98%; in assay [1] (Leukemic (LIVE) cells, 24 hours incubation, per AML donor sample), 64.3% and 83.1%; in assay [1] (Leukemic (LIVE) cells, 48 hours incubation, per AML donor sample) it was 99.8%; in assay [1] (Leukemic (LIVE) cells, 96 hours incubation, per AML donor sample), 100.0% and 99.9% and 99.6%; in assay [2] (Homo sapiens, Lymphocyte, normal lymphocytes in patient samples where sufficient could be counted, from 24 to 96 hours, read-out: Emax, averaged), 46 to 76%; in assay [2] (Lymphoid (LIVE) cells, 48 hours incubation, per AML donor sample, 100% minus YMin) it was 69.4%. Moreover, the EC50 in assay [1] (Homo sapiens, 96 h, sensitive AML patient samples (26 out of 30), across all three time points (24, 48, 96 hours), read-out: EC50 (range)) is 2 to 160 nM; in assay [1] (Homo sapiens, 96 h, sensitive AML patient samples (26 out of 30), across all three time points (24, 48, 96 hours), read-out: mean EC50) it was 21 nM; in assay [1] (Leukemic (LIVE) cells, 24 hours incubation, per AML donor sample, unit not printed in table (2 to 160 nM), read-out: EC50), 13 nM; in assay [1] (Leukemic (LIVE) cells, 96 hours incubation, per AML donor sample, unit not printed in table (2 to 160 nM), read-out: EC50), 5 nM; in assay [2] (Lymphoid (LIVE) cells, 48 hours incubation, per AML donor sample, unit inferred) it was 43 nM. For the same compound, the “depletion of leukemic blasts” value in assay [1] (four patient samples categorized as insensitive, at 24 and 48 hours) is reported as not above 68%. Moreover, the “depletion of leukemic cells, on average” value is given as more than 92% in assay [1] (by 48 hours) and more than 98% in assay [1] (by 96 hours).
